The source of these data is a melting point compilation (Tetko et al.; mined from patent text by program, amines drawn as free bases though some values may be those of a salt).

Bounds are passed on as bounds.

Regarding `O=C1C(Cl)=C(Cl)C(=O)c2ncccc21`, the melting point was in the range of 221 to 222 °C.

The compound `O=[N+]([O-])c1cn2c(n1)OC[C@@H](OCc1ccc(Br)cn1)C2` came in with a melting point of 171 to 173 °C.

Consider `Cc1cc(C=O)ccc1C(=O)Nc1ncc(Cl)cn1`, for which the melting point was 169 to 172 °C.

The compound `CNS(=O)(=O)c1cc2c(cc1CC(=O)O)CCCC2` came in with a melting point of 153 to 155 °C.

As for `COc1ccc(Nc2cccc3c2C(=O)N([C@@]2(C)CCC(=O)NC2=O)C3=O)c(OC)c1`, the melting point lay within 255 to 257 °C.

The compound `CCCCC(=O)Nc1c(C(=O)c2ccccc2)[nH]c2cc(Cl)ccc12` came in with a melting point of 140 to 143 °C.

Take `CCN(CC)c1cncc(C(=O)Nc2nnn[nH]2)n1`: the melting point is 217 to 218 °C.

`O=C(O)C(=O)c1ccc(OCCOc2cc3ccccc3cc2O)cc1` returned a melting point of 191 to 192 °C.

`NCC(O)COc1ccc(-c2ccccc2)cc1` (stereo not given) registered a melting point of 138 to 147 °C.

Take `O=C(O)C(Oc1ccccc1)c1ccc(Oc2ccccc2)cc1` (stereo not given): the melting point is 144 to 146 °C.

`COC(=O)c1nc(Cl)c(F)c(N)c1Br` yielded a melting point of 138 to 139 °C.

Regarding `Cc1ccc(C[C@H](N)[C@H](O)c2ccc(F)cc2)cc1OC(F)(F)C(F)F` (racemic), the melting point is 112 to 113 °C.

In turn, `CC(C)COC(=O)/C=C/C1NC(=O)CN1C(=O)OCc1ccccc1` (stereo not given) showed a melting point of 97 to 100 °C.

As for `CCCc1c(OCCCOc2ccc3c(c2CCC)OC(C(=O)O)CC3)ccc(C(C)=O)c1O` (stereo not given), the melting point lay in the range of 108 to 109 °C.

For the compound `O=C(O)CNC(=O)N1CCc2cc(S(=O)(=O)N3CCN(c4cccc(Cl)c4)CC3)ccc21`, the melting point worked out at 214 °C.

Regarding `COC(=O)CCn1c(=O)n(CCN2CCN(c3ccccc3OC)CC2)c(=O)c2sccc21`, the melting point fell in the range of 151 to 152 °C.

`Cc1c(SCCN2CCOCC2)ccnc1CSc1nc2ccccc2n1C(=O)N(C)C` displayed a melting point of 117 to 119 °C.

The compound `CN(C)Cc1c[nH]c2ncccc12` had a melting point of 161 to 162 °C.

Compound `CSC1NC(=O)N(c2cccc(C(F)(F)F)c2)C(=O)N1` registered a melting point of 225 to 228 °C.

In turn, `CCOC(=O)C(=NOC)C1=CSCCN1C=O` registered a melting point of 94 to 96 °C.

As to `OC1CSC(Oc2ccccn2)C(O)C1O` (stereo not given), the melting point is 196 °C.

`COc1ccccc1N1CCN(C(=O)N(C)c2cc(C)c(C)nc2OC)CC1` displayed a melting point of 131 to 132 °C.

`CC(C)Cn1nc(OCCCc2ccc(OC(C)C)cc2OCc2ccc(Cl)cc2Cl)cc1CCC(=O)O` registered a melting point of 133 to 134 °C.

Take `C/C(=C(\C#N)C(=S)/N=C/N(C)C)N1CCCN(c2ccc3c(c2)OCCO3)CC1`: the melting point fell in the range of 127 to 129 °C.

In turn, `COc1ccc(C2=NN(C3CCN(CC(N)=O)CC3)C(=O)CC2)cc1OC` had a melting point of 180 to 182 °C.

With `O=C(Nc1ccc(-n2nc(-c3ccoc3)cc2Cl)cc1)c1ccncc1F`, the melting point lay within 165 to 166 °C.

For the compound `CO[C@@H]1C[C@H](C)N(c2ccc(C#N)c3ccccc23)C1`, the melting point was in the range of 88 to 89 °C.

As for `CCOc1cc(OCC)nc(-c2ccc(C=O)cc2)n1`, the melting point lay in the range of 87 to 88 °C.

Turning to `O=[N+]([O-])c1cc(CBr)cc(CBr)c1`, the melting point was 100 to 101 °C.

The compound `CC(C)c1ccc2c(-c3cc(C(C)(C)C)c(O)c(C(C)(C)C)c3)nn(CCO)c2n1` displayed a melting point of 110 to 111 °C.

`CNC(=O)CC(O)(c1ccc(Br)cc1)c1cccnc1` (stereo not given) registered a melting point of 188 to 191 °C.

For `CC(=O)Oc1ccc(C(CN(C(C)=O)C(C)(C)C)OC(C)=O)nc1C` (stereo not given), the melting point lay in the range of 124 to 128 °C.

Turning to `Clc1ccc(C(CCC2CCCC2)Cn2cncn2)c(Cl)c1` (stereo not given), the melting point is 71 °C.

`CC(C)c1cccc(C(C)C)c1NC(=O)C(Br)c1ccccc1` (stereo not given) returned a melting point of 207 to 210 °C.

Compound `COc1ccc(C2CC(OC(C)=O)CCC2[N+](=O)[O-])cc1OC` (stereo not given) yielded a melting point of 108 to 110 °C.

The compound `CC(OCc1cc2cc(Cl)ccc2n1S(=O)(=O)c1ccc2c(c1)OCCO2)C(=O)O` (stereo not given) gave a melting point of 70 °C.

For `CCCCC[C@H]1CC[C@H](CCCCc2ccc(O)cc2)CC1`, the melting point came out at 86 °C.

Turning to `CN(CCN(CCC12CC3CC(CC(C3)C1)C2)C(=O)NCCCc1ccncc1)C(=O)CC(C)(C)C`, the melting point is 101 to 102 °C.

Compound `CN(CCN[C@H]1CC[C@H](c2ccccc2)CC1)c1ccc2[nH]c(=O)oc2c1` yielded a melting point of 229 to 234 °C.

For the compound `CNc1cc(Cc2c(-c3ccc(OCCN4CCCC4)cc3)sc3cc(O)ccc23)ccc1CN1CCCC1`, the melting point was in the range of 99 to 102 °C.

`CCCCOc1ccc(S(C)(=O)=O)cc1C(=O)Nc1c(C(N)=O)nn(CCN2CCOCC2)c1CC` yielded a melting point of 182 to 185 °C.

Compound `CC1(C)CC(S(=O)(=O)Cc2c(C(F)(F)F)nn(-c3ccccc3)c2Cl)=NO1` yielded a melting point of 132 to 133 °C.

As to `COc1ccnc(-c2sccc2S(C)=O)c1` (stereo not given), the melting point lay within 103 to 105 °C.

`Cn1ccnc1SCc1nc(-c2ccc3c(c2)OCO3)c2cc3c(cc2n1)OCO3` yielded a melting point of 155 to 160 °C.

For the compound `O=P1(c2ccccc2)CCCC1CO` (stereo not given), the melting point lay in the range of 109 to 110 °C.

With `O=C(O)CCc1c(C(=O)O)[nH]c2cc(I)cc(I)c12`, the melting point lay within 280 to 282 °C.

`Cc1nc(-c2ccc(-c3ccc(C(=O)Nc4ccc5c(c4)OC(CN(C)C)CO5)cc3)c(C)c2)no1` (stereo not given): the melting point is 92 to 94 °C.

The compound `COc1ccc(C(=O)COC(=O)NC(C)C)cc1` came in with a melting point of 121 to 122 °C.

On to `Cc1cccc(-c2nc(N)sc2-c2ccnc(-c3ccc(OC(F)(F)F)cc3)c2)n1`, for which the melting point is 222 to 224 °C.

Consider `CCC(=O)c1cc(Cl)ccc1NS(=O)(=O)C(F)(F)F`, for which the melting point was 54 to 55 °C.

Consider `CC(C#N)c1c(Cl)cc([N+](=O)[O-])cc1Cl` (stereo not given), for which the melting point is 72 °C.

Compound `O=C(O)COc1ccc2c(-c3ccccc3)noc2c1Cl` gave a melting point of 219 to 221 °C.

For the compound `CN(CCCl)C(=O)Nc1ccc([N+](=O)[O-])cc1C(F)(F)F`, the melting point was 86 to 87 °C.

`CN(C)c1cc(Oc2cccc(C(F)(F)F)c2)nc(C(=O)Nc2ccccc2)c1` yielded a melting point of 135 to 138 °C.

`CN(C)C(=O)C(C)(C)CCCCC(=O)CCCCC(C)(C)C(=O)O` registered a melting point of 91.5 to 93.5 °C.

Consider `Cc1ccc(NC(=O)c2cccc(N3CCOCC3)c2)cc1N`, for which the melting point lay within 192 to 193 °C.

`Cn1c(C(F)(F)F)cc(=O)n(-c2ccc3snc(CP(=O)(O)O)c3c2)c1=O` came in with a melting point of over 230 °C.

`COc1ccc(N2CCN(c3c(C)c(C)c4c(c3C)C(O)(c3ccccn3)C(C)(C)O4)CC2)cc1` (stereo not given) returned a melting point of 113 to 115 °C.

As for `CCCC1CCC(CC(=O)N[C@@H](Cc2cc(F)cc(F)c2)[C@H](O)CNCc2cccc(CC)c2)CC1=O` (stereo not given in full), the melting point is 52 to 54 °C.

Regarding `CCCCCCCCCCCCc1ccc(C(=O)c2ccccc2C(=O)O)cc1`, the melting point worked out at 85 °C.

`O=C(NC1CCCC1)c1ccc(CCN2CC=C(c3c[nH]c(-c4ccc(F)cc4)c3-c3ccncc3)CC2)cc1` registered a melting point of 192 to 195 °C.

`COc1ccc(CC(=O)c2cc(OC)cc(OC)c2)cc1` showed a melting point of 93 to 94 °C.

For the compound `Cc1cccc(Cl)c1NS(=O)(=O)c1n[nH]c(NC=O)n1`, the melting point was in the range of 291 to 300 °C.

`CCOC(=O)c1cn(C)c2cnc3cc(F)c(N4CCN(C(=O)CC(F)(F)F)C(c5ccc(OCc6ccccc6)c(OC)c5)C4)cc3c2c1=O` (stereo not given) displayed a melting point of 154 °C.

Compound `COC(=O)c1sc(C(=O)OC)c(OC)c1C` had a melting point of 61 to 64 °C.

Consider `Cn1nnc(-c2cn(C)c3ccccc3c2=O)n1`, for which the melting point lay within 189 to 192 °C.

In turn, `Brc1c(-c2ccccc2)n[nH]c1Sc1ccccc1` yielded a melting point of 121 to 122 °C.

Consider `O=C(CNC(=O)c1ccccc1)c1ccsc1`, for which the melting point lay in the range of 118 to 119 °C.

`Cn1c(-c2ccccc2F)c2ccsc2nc1=O` registered a melting point of 191 to 192 °C.

As for `Cc1ccc(S(=O)(=O)OCCOCn2cc(F)c(=O)[nH]c2=O)cc1`, the melting point fell in the range of 141 to 142 °C.

In the case of `CCc1c(CC(C)(C)C(=O)O)ccc2c1OCO2`, the melting point was in the range of 73 to 74 °C.

In turn, `CC(=O)OC1CSC(Sc2ccc(C(F)(F)F)cc2)C(OC(C)=O)C1OC(C)=O` (stereo not given) came in with a melting point of 160 °C.

Compound `CC(C)n1nc(C#Cc2cccc(F)c2)ccc1=O` yielded a melting point of 95.5 to 96.5 °C.

`CCCS(=O)C1(S(=O)(=O)NC(C)(C)C)C=CC=CN1` (stereo not given) had a melting point of 138 to 140 °C.

Compound `COc1ccc2c(c1)CCC1(C)CC(=O)NN=C21` (stereo not given) gave a melting point of 215 °C.

Compound `O=C1OC(c2ccccc2)=NC1=Cc1c(O)ccc2ccccc12` gave a melting point of 228 to 229 °C.

As for `CCC1=NNC(C)=C(C(=O)NN)C1c1cccc([N+](=O)[O-])c1` (stereo not given), the melting point stood at 98 °C.

For the compound `C[C@H](NC(=O)[C@H](Cc1ccccc1)NC(=O)OCc1ccccc1)C(=O)O`, the melting point was in the range of 160 to 164 °C.

`Oc1ccc(O)c2c1CC=CC2` displayed a melting point of 208 to 211 °C.

Take `COc1cccc([C@H]2CCCN2[S@@](=O)C(C)(C)C)c1`: the melting point lay within 45 to 50 °C.

`CCCn1c2ccccc2c2cc(C(=O)CC(C)=O)ccc21` gave a melting point of 97 °C.

For `COc1ccc(-c2cc(CN3CCN(C)CC3)c(=O)n(CC=Cc3ccc(Cl)cc3)n2)cc1F`, the melting point was in the range of 124 to 126 °C.

In the case of `Cc1nc2c(OCc3c(Cl)ccc(S(=O)(=O)N4CCC[C@H]4C(=O)NCCCNC(=O)c4ccc(C=NN)cc4)c3Cl)cccn2c1Br`, the melting point stood at 170 °C.

For `O=C1Nc2cccnc2Nc2ccc(Br)cc21`, the melting point lay in the range of 187 to 188 °C.

`NS(=O)(=O)c1ccc(C(=O)NCCCN2CCOCC2)cc1` showed a melting point of 196 to 198 °C.

`O=C(NC1CC2CC(N3CCN(c4ccccc4)CC3)CC2C1)c1ccccc1` (stereo not given) registered a melting point of 211 to 212 °C.

As for `COc1ccc([C@]2(c3ccc(F)c(-c4cncnc4)c3)N=C(N)N(C)C2=O)cc1C`, the melting point was found to be 115 °C.

`N#Cc1ccc2nc[nH]c(=O)c2c1` came in with a melting point of 294 to 300 °C.

The compound `Cn1cc(-c2cccc(C(F)(F)F)c2)c(=O)c(C2CC=CCC2)c1` (stereo not given) returned a melting point of 194 to 195 °C.

For `Cc1cc(F)ccc1Nc1nc(N(C)c2ccccc2)c2cc(OCCCN3CCOCC3)ccc2n1`, the melting point is 119 to 120 °C.

The term melting point denotes the temperature, or range, at which the solid turns liquid.
